{"source": "patent US5091191A", "about": "(Yoshitomi Pharmaceutical Industries, Ltd., priority 1988, dated 1992)", "key": {"[1]": {"experiment": "Solubility of the Compound at different pH values (FIG. 1)", "type": "physicochemical", "settings": "weakly acid to neutral, about pH 3 to about pH 7", "description": "FIG. 1 is a graph showing the solubility of the Compound at different ph valves. FIGS. 2, 3 and 4 are the graphs showing the dissolution test results of the Compound and the tablets of Reference Example 1, the fine granules of Example 1 and the tablets of Example 2, respectively."}, "[2]": {"experiment": "Behaviour of finely-powdered Compound in weakly acid solution", "type": "physicochemical"}}}
{"compound": "Cc1ccc(-n2ccnc2)cc1C(O)c1c(C)cc(C(=O)[O-])cc1C.[Na+]", "note": "(stereo not drawn)", "values": [{"measurement": "solubility", "setting": "[1]", "result": "lowered under weakly acid to neutral conditions"}, {"measurement": "conversion to corresponding free acid", "setting": "[2]; added to a weakly acid solution", "result": "the corresponding free acid was produced through chemical reaction"}, {"measurement": "dissolution-improving effect of finely-powdering", "setting": "[2]; weakly acid solution", "result": "there was not found any dissolution-improving effect"}]}
